The conditions of data set [1]: 20% D2O, 31P NMR; for hydrolysis in human serum/plasma: 80% human plasma/serum.
Data set [2] has as its system LN319 (ENO1+/+) glioma cells. Particulars: read-out: IC50 LN319 (ENO1+/+); 6 day treatment.
For data set [3], the system named is D423 (ENO1–/–) glioma cells. The experiment in a line: In vitro cytotoxicity of prodrugs, three-cell line assay.
In data set [4] the test system is ENO1–/– intracranial orthotopic tumors. Particulars: cited from earlier work; for effect on ENO1–/– intracranial orthotopic tumors: mice, 6: 10 mg/kg IV and IP, 5: 150 mg/kg IV and 100 mg/kg IP.
The conditions of data set [5]: 80% DMEM, 20% D2O, 31P NMR.
In data set [6] the test system is LN319 (ENO1+/+) glioma cells. The experiment in a line: cells. Particulars: LN-319, 144 h, read-out: IC50 LN319 (ENO1+/+), 6 day treatment.
The subject of data set [7] is D423 ENO1 (ENO1-isogenic rescue) glioma cells. The experiment in a line: In vitro cytotoxicity of prodrugs, three-cell line assay.
Data set [8] concerns NCI-60 cell line panel. The format is cell-based. Particulars: 10 μM, 24 h.
Setting [9] is: read-out: IC50 D423 (ENO1–/–), 6 day treatment.
Setting [10] is: Glioma cell, 144 h, read-out: IC50 D423 (ENO1–/–), 1% O2 (hypoxic), 6 days.
[11] abbreviates: Glioma cell, 144 h, read-out: IC50 D423 (ENO1–/–), 6 day treatment.

pIC50: −log10 of the molar value. Like-named read-outs stand apart in the source and are kept apart here.

Take `CC(C)OC(=O)[C@H](C)N[P@](=O)(CO[C@H](C)Cn1cnc2c(N)ncnc21)Oc1ccccc1` [TAF, tenofovir alafenamide, reference compound]: the “hydrolysis in human serum/plasma” value in data set [1] is given as “occurs rapidly”.
For the molecule “Bis(cyanomethyl)(1-hydroxy-2-oxopiperidin-3-yl)phosphonate [compound 29]”, the “t1/2 in human plasma” value in data set [1] (80% human plasma, 37 °C) is “approximately 10 h”. Besides, the pIC50 in data set [2] and in data set [3] (setting [9]) was less than 4.00 throughout.
As for `CC(C)(C)C(=O)OCOP(=O)(OCOC(=O)C(C)(C)C)C1CCCN(O)C1=O` (stereo not drawn) [compound 6, POMHEX], the “hydrolysis in human serum/plasma” value in data set [1] is given as “rapidly hydrolyzed to the mono-POM ester intermediate”. The drug-related adverse events result in data set [4] (50 day in vivo evaluation) is on record as “no drug-related adverse events were observed”. The “effect on ENO1–/– intracranial orthotopic tumors” value in data set [4] is “profound tumor regression”. For the same molecule, the pIC50 in data set [3] (setting [10]) is 6.70; in data set [3] (Glioma cell, 144 h, read-out: IC50 D423 (ENO1–/–), 21% O2, 6 days) it was 7.10.
With `CC(C)OC(=O)[C@H](C)NP(=O)(OCOC(=O)C(C)(C)C)C1CCCN(O)C1=O` (stereo partly drawn) [20o], the pIC50 in data set [3] (setting [11]) is 6.69.
In the case of `CC(C)(C)C(=O)OCOP(=O)(NCc1ccccc1)C1CCCN(O)C1=O` (stereo not drawn) [20b], the pIC50 in data set [3] (setting [11]) is 6.61.
For `CC(=O)ON1CCCC(P(=O)(NCc2ccccc2)OCc2ccc([N+](=O)[O-])o2)C1=O` (stereo not drawn) [compound 24], in data set [3] (setting [10]), the pIC50 was 6.87.
On to `CC(C)C(=O)ON1CCCC(P2(=O)OCc3ccccc3O2)C1=O` (stereo not drawn) [compound 30, 3-(2-Oxido-4H-benzo[d][1,3,2]dioxaphosphinin-2-yl)-2-oxopiperidin-1-yl Isobutyrate], for which the “time by which no intact prodrug is detectable in human plasma/serum” value in data set [1] (80% human plasma, 37 °C) is on record as no more than 3 h. The “time by which no intact prodrug is present in cell culture media” value in data set [5] is listed as no more than 3 h.
As for `O=C1C(P(=O)(O)O)CCCN1O` (stereo not drawn) [compound 5], the “effect on ENO1–/– intracranial orthotopic tumors” value in data set [4] was “profound tumor regression”. For the same molecule, the pIC50 in data set [6] is less than 3.52.
On to “Cyanomethyl N-Benzyl-P-(1-hydroxy-2-oxopiperidin-3-yl)phosphonamidate [compound 25]”, for which the pIC50 in data set [7] (read-out: IC50 D423 ENO1 (ENO1-tg), 6 day treatment) is less than 4.15; in data set [3] (setting [9]), 5.18; in data set [3] (read-out: IC50 in D423 cells, 6 day treatment) it was roughly 5.15.
As to `CC(C)OC(=O)[C@H](C)NP(=O)(Oc1ccccc1)C1CCCN(O)C1=O` (stereo partly drawn) [compound 17], the “time prodrug remains stable/intact in human serum/plasma” value in data set [1] (80% human plasma, 37 °C) is given as “over 9 h”. Moreover, in data set [1], the “hydrolysis in human serum/plasma” value was “incomplete even after 336 h”.
With `CCCCCCCCCCCCCCCCOCCCOP(=O)(O)C1CCCN(O)C1=O` (stereo not drawn) [compound 28], the “Average % Growth: Melanoma” value in data set [8] is on record as 5%.
For `O=C1C(P(=O)(NCc2ccccc2)Oc2ccc(F)cc2)CCCN1O` (stereo not drawn) [compound 26, 4-Fluorophenyl N-Benzyl-P-(1-hydroxy-2-oxopiperidin-3-yl)phosphonamidate], the pIC50 in data set [7] (Glioma cell, 144 h, read-out: IC50 D423 ENO1 (ENO1-tg), 6 day treatment) is less than 4.00; in data set [3] (setting [11]), less than 4.00.
